Results reported in paper PMC5808195 (Frontiers in Pharmacology, 2018).
Where a name gives a salt, the structure may show the parent alone. Read-outs that look alike come from different tables or passages of the source.

Key:
[1] = target: T1, rat cerebral neuronal membranes (histamine H1 binding sites) (Rattus norvegicus, UniProt P31390); assay: Competitive displacement of [^3H]pyrilamine binding, rat cerebral neuronal membranes; conditions: for displacement of specific [^3H]pyrilamine binding (in words): rat cerebral neuronal membranes, 20 nM [^3H]pyrilamine
T1 construct: native receptors contained in rat cerebral neuronal membranes; from tissue; host or cells: cerebral tissue of male Wistar rats, membrane fraction (40,000 x g pellet)
T1 sequence (P31390 whole entry): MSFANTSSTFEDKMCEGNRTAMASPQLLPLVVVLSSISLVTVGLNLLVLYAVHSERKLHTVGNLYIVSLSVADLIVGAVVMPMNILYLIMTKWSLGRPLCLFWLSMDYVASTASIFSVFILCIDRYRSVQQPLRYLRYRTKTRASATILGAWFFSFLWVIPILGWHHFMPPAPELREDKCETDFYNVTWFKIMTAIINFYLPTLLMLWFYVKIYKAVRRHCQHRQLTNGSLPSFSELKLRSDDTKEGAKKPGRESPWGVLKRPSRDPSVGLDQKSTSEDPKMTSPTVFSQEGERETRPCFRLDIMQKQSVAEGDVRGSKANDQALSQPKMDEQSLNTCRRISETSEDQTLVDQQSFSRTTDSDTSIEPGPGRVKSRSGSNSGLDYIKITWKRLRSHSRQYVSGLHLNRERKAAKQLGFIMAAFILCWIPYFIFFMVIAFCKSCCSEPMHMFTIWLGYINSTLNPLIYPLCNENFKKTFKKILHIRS

[2] = target: T2, synthesized WT-HRH1 proteoglycerosomes (Homo sapiens, UniProt P35367)
T2 sequence (P35367 whole entry): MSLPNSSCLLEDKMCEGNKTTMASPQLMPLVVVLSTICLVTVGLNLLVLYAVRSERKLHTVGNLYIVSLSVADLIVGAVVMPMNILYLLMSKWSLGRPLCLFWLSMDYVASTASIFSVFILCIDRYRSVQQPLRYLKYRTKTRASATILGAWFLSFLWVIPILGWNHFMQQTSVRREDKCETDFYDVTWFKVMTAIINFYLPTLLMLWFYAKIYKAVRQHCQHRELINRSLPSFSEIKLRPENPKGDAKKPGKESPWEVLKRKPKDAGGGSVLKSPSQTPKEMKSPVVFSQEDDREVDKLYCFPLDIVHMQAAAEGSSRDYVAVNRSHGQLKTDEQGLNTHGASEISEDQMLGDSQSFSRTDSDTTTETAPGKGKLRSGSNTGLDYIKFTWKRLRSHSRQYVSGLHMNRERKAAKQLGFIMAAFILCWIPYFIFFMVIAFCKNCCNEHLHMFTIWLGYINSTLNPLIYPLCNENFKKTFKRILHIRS
Excerpt: (§1) Eight different concentrations of each cold competitor were used in the competitive binding studies. […] The data are based on experiments performed in triplicate. The experimental conditions were the same as those used in the saturation studies.

[3] = target: T2, synthesized WT-HRH1 proteoglycerosomes; assay: biochemical
Excerpt: as §1

Question: What does the source list for `NC1=NCC2c3ccccc3Cc3ccccc3N12` (centres unmarked) [Epinastine, epinastine hydrochloride]?
Answer: Ki [1]: 0.288 ± 0.0615 nM; displacement of specific [^3H]pyrilamine binding (in words) [1]: concentration-dependent inhibition; displacement of specific [^3H]pyrilamine binding (in words) ([2]; synthesized receptors, 20 nM [^3H]pyrilamine): concentration-dependent inhibition; Ki [3]: 0.332 ± 0.0989 nM

Question: What does the source list for `C[C@@H](N)Cc1cnc[nH]1` [alpha methylhistamine, alpha-methylhistamine]?
Answer: displacement of specific [^3H]pyrilamine binding (in words) [1]: did not inhibit; displacement of specific [^3H]pyrilamine binding (in words) [2]: did not inhibit

Question: How did the “displacement of specific [^3H]pyrilamine binding (in words)” value [1] turn out when `S=C(NC1CCCCC1)N1CCC(c2cnc[nH]2)CC1` [thioperamide] was run?
Answer: The value was “no displacement ability”.

Question: What about the “displacement of specific [^3H]pyrilamine binding (in words)” value [2] of the same compound?
Answer: Its value is “no displacement ability”.
